Measurements taken from ChEMBL document CHEMBL4043210, “Synthesis of amide isosteres of schweinfurthin-based stilbenes” (2017).

Test: Growth inhibition of human NCI60 cells by sulforhodamine B assay
Type: functional

COc1cc(NC(=O)c2cc(OC)c3ccn(C)c3c2)cc2c1O[C@]1(C)CC[C@@H](O)C(C)(C)[C@H]1C2
GI50: 6600 nM

COc1cc(NC(=O)c2cc(O)c(C/C=C(\C)CCC=C(C)C)c(O)c2)cc2c1O[C@]1(C)CC[C@@H](O)C(C)(C)[C@H]1C2
GI50: 1100 nM

COc1cc(C(=O)Nc2cc(OC)c3ccn(C)c3c2)cc2c1O[C@]1(C)CC[C@@H](O)C(C)(C)[C@H]1C2
GI50: 660 nM

COc1cc(C(=O)Nc2cc(O)c(C/C=C(\C)CCC=C(C)C)c(O)c2)cc2c1O[C@]1(C)CC[C@@H](O)C(C)(C)[C@H]1C2
GI50: 210 nM

COc1cc(/C=C/c2cc(O)c(C/C=C(\C)CCC=C(C)C)c(O)c2)cc2c1O[C@]1(C)CC[C@@H](O)C(C)(C)[C@H]1C2 [3-DEOXYSCHWEINFURTHIN B]
GI50: 870 nM

CC(C)=CCC/C(C)=C/Cc1c(O)cc(/C=C/c2cc(O)c3c(c2)C[C@@H]2C(C)(C)[C@H](O)[C@H](O)C[C@@]2(C)O3)cc1O [SCHWEINFURTHIN A]
GI50: 360 nM
